From US20260315611A1, “LINKER COMPOUNDS AND LIGAND-DRUG CONJUGATES, PREPARATION METHODS AND USES THEREOF” (Biocytogen Pharmaceuticals (Beijing) Co., Ltd., priority 2023, published 2026)

Assays:
[1] = test system: L6; test: in vitro killing activity; assay type: cell-based, Rat; conditions: 120 h incubation
Method: (§1) Different concentrations of compounds CPT-1, CPT-2, CPT-3, CPT-4, Dxd (MedChem Express, Cat #: HY-13631D) and SN38 (MedChem Express, Cat #: HY-13704) were used to treat different human tumor cell lines, mice tumor cell lines, rat tumor cell lines or dog tumor cell lines cultured in a cell culture plate, respectively. And the killing activity was detected after 72 h-120 h incubation by IncuCyte (Sartorius AG, IncuCyte® S3) or MicroplateReader.

[2] = test system: PC12; test: in vitro killing activity; assay type: cell-based, Rat; conditions: 120 time of incubation
Method: as §1

[3] = test system: LOVO; test: in vitro killing activity; assay type: cell-based, Human; conditions: 120 h incubation
Method: as §1

[4] = test system: Panc 02.03; test: in vitro killing activity; assay type: cell-based, Human; conditions: 120 time of incubation
Method: as §1

[5] = test system: NCI-H2030; test: in vitro killing activity; assay type: cell-based, Human; conditions: 120 time of incubation
Method: as §1

[6] = test system: SKOV-3; test: in vitro killing activity; assay type: cell-based, Human; conditions: 120 time of incubation
Method: as §1

[7] = test system: Hela; test: in vitro killing activity; assay type: cell-based, Human; conditions: 120 h incubation
Method: as §1

[8] = test system: NCI-N87; test: in vitro killing activity; assay type: cell-based, Human; conditions: 120 time of incubation
Method: as §1

[9] = test system: BT474; test: in vitro killing activity; assay type: cell-based, Human; conditions: 120 time of incubation
Method: as §1

[10] = test system: U-2-OS; test: in vitro killing activity; assay type: cell-based, Human; conditions: 120 time of incubation
Method: as §1

[11] = test system: HS-746T; test: in vitro killing activity; assay type: cell-based, Human; conditions: 120 time of incubation
Method: as §1

[12] = test system: PC-3; test: in vitro killing activity; assay type: cell-based, Human; conditions: 120 time of incubation
Method: as §1

[13] = test system: NCI-H69; test: in vitro killing activity; assay type: cell-based, Human; conditions: 120 time of incubation
Method: as §1

[14] = test system: HuH-7; test: in vitro killing activity; assay type: cell-based, Human; conditions: 120 h incubation
Method: as §1

[15] = test system: OVKATE; test: in vitro killing activity; assay type: cell-based, Human; conditions: 120 time of incubation
Method: as §1

[16] = test system: NCI-H226; test: in vitro killing activity; assay type: cell-based, Human; conditions: 120 h incubation
Method: as §1

[17] = test system: SW620; test: in vitro killing activity; assay type: cell-based, Human; conditions: 120 h incubation
Method: as §1

[18] = test system: A-431; test: in vitro killing activity; assay type: cell-based, Human; conditions: 120 time of incubation
Method: as §1

[19] = test system: BxPC-3; test: in vitro killing activity; assay type: cell-based, Human; conditions: 120 time of incubation
Method: as §1

[20] = test system: NCI-H1781; test: in vitro killing activity; assay type: cell-based, Human; conditions: 120 time of incubation
Method: as §1

[21] = test system: HCC1954; test: in vitro killing activity; assay type: cell-based, Human; conditions: 120 time of incubation
Method: as §1

[22] = test system: NCI-H1975; test: in vitro killing activity; assay type: cell-based, Human; conditions: 120 time of incubation
Method: as §1

[23] = test system: SW156; test: in vitro killing activity; assay type: cell-based, Human; conditions: 120 time of incubation
Method: as §1

[24] = test system: DCOL1 (S+L−); test: in vitro killing activity; assay type: cell-based, Dog; conditions: 120 time of incubation
Method: as §1

[25] = test system: MP-0094-2; test: in vitro killing activity; assay type: cell-based, Dog; conditions: 120 time of incubation
Method: as §1

[26] = test system: MP-0094-3; test: in vitro killing activity; assay type: cell-based, Dog; conditions: 120 time of incubation
Method: as §1

[27] = test system: D17; test: in vitro killing activity; assay type: cell-based, Dog; conditions: 120 time of incubation
Method: as §1

[28] = test system: CMT-U27; test: in vitro killing activity; assay type: cell-based, Dog; conditions: 120 time of incubation
Method: as §1

[29] = test system: MP-1092-1; test: in vitro killing activity; assay type: cell-based, Dog; conditions: 120 time of incubation
Method: as §1

[30] = test system: MP-1044-1; test: in vitro killing activity; assay type: cell-based, Dog; conditions: 72 time of incubation
Method: as §1

[31] = test system: B16F10; test: in vitro killing activity; assay type: cell-based, Mice; conditions: 75 time of incubation
Method: as §1

[32] = test system: MC38; test: in vitro killing activity; assay type: cell-based, Mice; conditions: 120 time of incubation
Method: as §1

[33] = test system: CT26; test: in vitro killing activity; assay type: cell-based, Mice; conditions: 96 time of incubation
Method: as §1

[34] = test system: Pgp; conditions: cited from earlier work

CC[C@@]1(O)C(=O)OCc2c1cc1n(c2=O)Cc2c-1nc1cc(F)c(C)c3c1c2[C@@H](NC(=O)CO)CC3 [Dxd, reference compound]
IC50 [1]: 13.8 nM | IC50 [2]: 9.19 nM | IC50 [3]: 8.65 nM | IC50 [4]: 3.18 nM | IC50 [5]: 6.43 nM | IC50 [6]: 16.5 nM | IC50 [7]: 6.69 nM | IC50 [8]: 7.03 nM | IC50 [9]: 10.9 nM | IC50 [10]: 41.9 nM | IC50 [11]: 1.05 nM | IC50 [12]: 6.4 nM | IC50 [13]: 0.299 nM | IC50 [14]: 1.39 nM | IC50 [15]: 12.3 nM | IC50 [16]: 22.9 nM | IC50 [17]: 3.89 nM | IC50 [18]: 28.1 nM | IC50 [19]: 1.87 nM | IC50 [20]: 0.724 nM | IC50 [21]: 3.31 nM | IC50 [22]: 9.91 nM | IC50 [23]: 1.84 nM | IC50 [24]: 9.05 nM | IC50 [25]: 9.67 nM | IC50 [26]: 22 nM | IC50 [27]: 6.08 nM | IC50 [28]: 3.37 nM | IC50 [29]: 7.13 nM | IC50 [30]: 41.7 nM | IC50 [31]: 26.2 nM | IC50 [32]: 38.5 nM | IC50 [33]: 94.2 nM | Pgp substrate [34]: Pgp substrates
